According to EP4553077A1 (Kinoteck Therapeutics Co., Ltd, priority 2022, dated 2024):
Blank lines part the entries; values can stand above or below the compound they belong to.

Columns and labels:
[1] = tested on: A204 cells; test: Proliferation inhibition, CCK-8 colorimetric method; assay type: cell-based; conditions: 72 h
Protocol: (§1) CCK-8 (Bimake/B34304) colorimetric method was used to detect the in vitro proliferation inhibitory effect of compounds on suspended or adherent cells in this experiment. The specific experimental steps were as follows: • 1) Cell plating: SNU16 and A204 tumor cells (cells from Shanghai Institute of Organic Chemistry, Chinese Academy of Sciences) in the logarithmic growth phase were digested and centrifuged for trypan blue counting, and the cells were seeded into a transparent 96 well plate at a density of 4000 cells/100 µ 1/well. […] The test compound and control compound stock solution were diluted with the corresponding culture medium required for cell culture (with or without solvent DMSO) to obtain a series of working solutions, with concentrations of twice the final concentration. The solvent DMSO contents in each concentration group were consistent with that of the solvent control group. The final concentration of A204 cells started at 10 µM and was diluted twice.
(§2) Calculation of cell survival rate: Cell survival rate (%)=[(As-Ac)/(Ab-Ac)] × 100%] (As: experimental well; Ab: Solvent control well; Ac: Blank well).

[2] = tested on: SNU16 cells; test: as above; assay type: cell-based
Protocol: as §1, §2

[3] = biological target: Ba/F3-TEL-FGFR2 (Homo sapiens, UniProt P21802+P41212); test: Cell viability (proliferation inhibition) of Ba/F3 cells, CellTiter Glo; conditions: read-out: Ba/F3 cell FGFR2 (IC50 nM), 72 h
Chain of Ba/F3-TEL-FGFR2 (P21802 481-770 limits assumed, one chain of several): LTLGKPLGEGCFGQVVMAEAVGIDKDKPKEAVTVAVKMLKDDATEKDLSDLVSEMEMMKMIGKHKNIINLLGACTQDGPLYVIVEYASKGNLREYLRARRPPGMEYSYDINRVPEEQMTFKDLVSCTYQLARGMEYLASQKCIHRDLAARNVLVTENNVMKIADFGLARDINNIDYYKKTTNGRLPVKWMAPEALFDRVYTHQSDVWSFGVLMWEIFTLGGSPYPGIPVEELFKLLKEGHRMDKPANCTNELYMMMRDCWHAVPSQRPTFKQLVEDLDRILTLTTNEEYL

[4] = biological target: Ba/F3-TEL-FGFR1 (Homo sapiens, UniProt P11362+P41212); test: as above; conditions: read-out: Ba/F3 cell FGFR1 (IC50 nM), 72 h
Chain of Ba/F3-TEL-FGFR1 (P11362 478-767 limits assumed, one chain of several): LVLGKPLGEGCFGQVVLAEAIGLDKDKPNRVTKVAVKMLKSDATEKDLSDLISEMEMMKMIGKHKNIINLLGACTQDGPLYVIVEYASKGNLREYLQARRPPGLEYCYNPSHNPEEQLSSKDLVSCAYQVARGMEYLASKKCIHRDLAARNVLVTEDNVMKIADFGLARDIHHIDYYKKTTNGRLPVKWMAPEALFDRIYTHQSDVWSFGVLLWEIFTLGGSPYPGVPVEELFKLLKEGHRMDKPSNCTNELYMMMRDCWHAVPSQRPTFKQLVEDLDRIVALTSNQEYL

[5] = Pharmacokinetic test in rats; assay type: in vivo, male SD rats; conditions: rat, plasma, oral gavage administration, 10 mg/kg
Protocol: Rat pharmacokinetic experiments were performed using male SD rats, 180-220g, provided by Beijing Vital River Laboratory Animal Technology Co., Ltd. 3 rats that were fasted overnight were taken, and administered orally by gavage (10 mg/kg). Blood samples were collected before administration, as well as 5, 15, 30 min and 1, 2, 4, 6, 8, 24 h after administration; another 3 rats were taken and administered intravenously (1 mg/kg), blood samples were collected before administration, as well as 5, 15, 30 min and 1, 2, 4, 6, 8, 24 h after administration. Blood sample was centrifuged at 6800g, 2-8 °C for 6 min, and plasma was collected, and stored at -80 °C. Plasma of each time point was taken, 10 times the amount of 50% methanol acetonitrile solution containing internal standard was added, and mixed by vortex for 5 min, centrifuged at 18000 rpm at 4 °C for 10 min, and the supernatant was taken directly for LC-MS/MS analysis. The main pharmacokinetic parameters were analyzed using WinNonlin8.2 software for non compartmental model analysis. Table 3: pharmacokinetic test in rats results of test compounds

IC50 ([2]; Homo sapiens, SNU-16, 72 h): 4.3 nM
Compound: CCN1CCN(c2ccc(Nc3cc(N(C)C(=O)Nc4c(Cl)c(OC)cc(OC)c4Cl)ncn3)cc2)CC1 [BGJ398, reference compound]
IC50 ([1]; Homo sapiens): 100 nM

IC50 ([2]; Homo sapiens, SNU-16, 72 h): 1.72 nM
Compound: C=C(F)C(=O)Nc1ccc(-c2c(-c3ccc(N=S4(=O)CCCC4)c(F)c3)c3c(N)ncnc3n2C)cc1 [Compound 21, N-(4-(4-amino-5-(3-fluoro-4-((1-oxotetrahydro-1 λ^6-thiophene-1-ylidene)amino)phenyl) -7-methyl-7H-pyrrolo [2,3-d]pyrimidin-6-yl)phenyl) -2-fluoroacrylamide]
IC50 [3]: 0.8 nM
IC50 ([1]; Homo sapiens): 333 nM

Compound: C=C(C)C(=O)Nc1ccc(-c2c(-c3ccc(N=S4(=O)CCCC4)cc3)c3c(N)ncnc3n2C)cc1 [Compound 31]
IC50 [3]: 8.3 nM
IC50 [4]: 2090 nM

IC50 ([2]; 72 h): 9.56 nM
Compound: C=C(C)C(=O)Nc1ccc(-c2c(-c3ccc(N=S(=O)(N(C)C)C(F)(F)F)cc3)c3c(N)ncnc3n2C)c(F)c1 (centres unmarked) [Compound 32]
IC50 [3]: 0.4 nM
IC50 [1]: 2250 nM

IC50 ([2]; Homo sapiens, SNU-16, 72 h): 4.91 nM
Compound: CC#CC(=O)Nc1ccc(-c2c(-c3ccc(N=S4(=O)CCCCC4)c(F)c3)c3c(N)ncnc3n2C)cc1 [Compound 35, N-(4-(4-amino-5-(3-fluoro-4-((1-oxotetrahydro-2H-1 λ^6-thiopyran-1-ylidene)amino)phenyl) -7-methyl-7H-pyrrolo [2,3-d]pyrimidin-6-yl)phenyl) but-2-ynamide]
IC50 [3]: 4.4 nM
IC50 ([1]; Homo sapiens): 406 nM

Compound: C=C(C)C(=O)Nc1ccc(-c2c(-c3ccc(N=S4(=O)CCCC4)c(F)c3)c3c(N)ncnc3n2C)c(C(F)F)c1 [Compound 59, N-(4-(4-amino-5-(3-fluoro-4-((1-oxotetrahydro-1 λ^6-thiophene-1-ylidene)amino)phenyl) -7-methyl-7H-pyrrolo [2,3-d]pyrimidin-6-yl) -3-(difluoromethyl)phenyl) methacrylamide]
IC50 [3]: 7.8 nM
IC50 [4]: 1320 nM

Compound: C=C(C)C(=O)Nc1ccc(-c2c(-c3ccc(N=S4(=O)CC(C)(C)C4)cc3)c3c(N)ncnc3n2C)c(F)c1 [Compound 63]
AUC(0-t) [5]: 1700 ng·h/mL
Cmax [5]: 556 ng/mL
Tmax [5]: 0.5 h
half-life [5]: 2.59 h
IC50 [3]: 1.1 nM
IC50 [4]: 396 nM

Compound: C=C(C)C(=O)Nc1ccc(-c2c(-c3ccc(N=S4(=O)CCC4)c(F)c3)c3c(N)ncnc3n2C)c(C)c1 [Compound 70]
IC50 [3]: 2.7 nM
IC50 [4]: 775 nM

Compound: C=C(C)C(=O)Nc1ccc(-c2c(-c3ccc(N=S4(=O)CCC4)c(F)c3)c3c(N)ncnc3n2C)c(F)c1 [Compound 75]
IC50 [3]: 0.8 nM
IC50 [4]: 701 nM

Compound: C=C(C)C(=O)Nc1ccc(-c2c(-c3cc(F)c(N=S4(=O)CCC4)cc3F)c3c(N)ncnc3n2C)c(F)c1 [Compound 77, N-(4-(4-amino-5-(2,5-difluoro-4-((1-oxo-1λ^6-thiocyclobutan-1-ylidene)amino)phenyl) -7-methyl-7H-pyrrolo [2,3-d]pyrimidin-6-yl) -3-fluorophenyl) methacrylamide]
IC50 [3]: 4.7 nM
IC50 [4]: 884 nM

Compound: [2H]C([2H])([2H])n1c(-c2ccc(NC(=O)C(=C)C)cc2F)c(-c2ccc(N=S3(=O)CCCC3)c(Cl)c2)c2c(N)ncnc21 [Compound 82, N-(4-(4-amino-5-(3-chloro-4-((1-oxidetetrahydro-1λ^6-thiophene-1-ylidene)amino)phenyl)-7-(methyl-d3)-7H-pyrrolo[2,3-d]pyrimidin-6-yl)-3-fluorophenyl) methacrylamide]
IC50 [3]: 0.8 nM
IC50 [4]: 484 nM

Compound: [2H]C([2H])([2H])n1c(-c2ccc(NC(=O)C(=C)C)cc2Cl)c(-c2ccc(N=S3(=O)CCC3)c(F)c2)c2c(N)ncnc21 [Compound 84, N-(4-(4-amino-5-(3-fluoro-4-(1-oxo-1λ^6-thietan-1-imino)phenyl)-7-(methyl-d3)-7H-pyrrolo[2,3-d]pyrimidin-6-yl)-3-chlorophenyl)methacrylamide]
IC50 [3]: 0.8 nM
IC50 [4]: 250 nM

Compound: C=C(C)C(=O)Nc1ccc(-c2c(-c3ccc(N=S4(=O)CCCC4)c(C)c3)c3c(N)ncnc3n2C)c(F)c1 [Compound 87, N-(4-(4-amino-7-methyl-5-(3-methyl-4-((1-tetrahydro-1λ^6-thiophene-1-ylidene)amino)phenyl) -7H-pyrrolo [2,3-d]pyrimidin-6-yl) -3-fluorophenyl) methacrylamide]
IC50 [3]: 2.1 nM
IC50 [4]: 666 nM

Compound: C=C(C)C(=O)Nc1ccc(-c2c(-c3ccc(N=S4(=O)CCCC4)c(C(F)F)c3)c3c(N)ncnc3n2C)c(F)c1 [Compound 89, N-(4-(4-amino-5-(3-(difluoromethyl) -4-((1-tetrahydro-1λ^6-thiophene-1-ylidene)amino)phenyl) -7-methyl-7H-pyrrolo [2,3-d]pyrimidin-6-yl) -3-fluorophenyl) methacrylamide]
IC50 [3]: 6.5 nM
IC50 [4]: 686 nM

Compound: [2H]C([2H])([2H])n1c(-c2ccc(NC(=O)C(=C)C)cc2Cl)c(-c2ccc(N=S3(=O)CCC3)c(Cl)c2)c2c(N)ncnc21 [Compound 95, N-(4-(4-amino-5-(3-chloro-4-((1-oxo-1 λ^6-thietan-1-ylidene)amino)phenyl) -7-(methyl-d3) -7H-pyrrolo [2,3-d]pyrimidin-6-yl) -3-chlorophenyl) methacrylamide]
IC50 [3]: 0.7 nM
IC50 [4]: 484 nM

Compound: C=C(C)C(=O)Nc1ccc(-c2c(-c3ccc(N=S(=O)(CC)CC)c(F)c3)c3c(N)ncnc3n2C)c(C)c1 [Compound 101]
IC50 [3]: 4.7 nM

Compound: C=C(C)C(=O)Nc1ccc(-c2c(-c3ccc(N=S(=O)(CC)CC)cc3)c3c(N)ncnc3n2CC(F)(F)F)c(F)c1 [Compound 103]
IC50 [3]: 13.9 nM

Compound: C=C(C)C(=O)Nc1ccc(-c2c(-c3ccc(N=S4(=O)CCOCC4)cc3)c3c(N)ncnc3n2C)c(F)c1 [Compound 105]
IC50 [3]: 20.9 nM

Compound: C=C(C)C(=O)Nc1ccc(-c2c(-c3ccc(N=S4(=O)CC(C)(C)C4)c(F)c3)c3c(N)ncnc3n2C)c(F)c1 [Compound 106, N-(4-(4-amino-5-(4-((3,3-dimethyl-1-oxo-1 λ^6-thiocyclobutan-1-ylidene)amino) -3-fluorophenyl) -7-methyl-7H-pyrrolo [2,3-d]pyrimidin-6-yl) -3-fluorophenyl) methacrylamide]
IC50 [3]: 2.2 nM

Compound: C=C(C)C(=O)Nc1ccc(-c2c(-c3ccc(N=S(C)(C)=O)cc3)c3c(N)ncnc3n2C)c(F)c1 [Compound 107]
IC50 [3]: 15.6 nM
IC50 [4]: 3630 nM

Compound: [2H]C([2H])([2H])n1c(-c2ccc(NC(=O)C(=C)C)cc2F)c(-c2ccc(N=S3(=O)C=CC(C)(C)C3)cc2)c2c(N)ncnc21 (centres unmarked) [Compound 108, N-(4-(4-amino-5-(4-((3,3-dimethyl-1-oxo-1 λ^6-thiophene-1-ylidene)amino)phenyl) -7-(methyl-d3) -7H-pyrrolo [2,3-d]pyrimidin-6-yl) -3-fluorophenyl) methacrylamide]
IC50 [3]: 2.5 nM

Compound: C=CC(=O)Nc1ccc(-c2c(-c3ccc(N=S4(=O)CCCC4)cc3)c3c(N)ncnc3n2C)c(F)c1 [Compound 110]
IC50 [3]: 2 nM

Compound: C=C(F)C(=O)Nc1ccc(-c2c(-c3ccc(N=S4(=O)CCCC4)cc3)c3c(N)ncnc3n2C)c(F)c1 [Compound 111]
IC50 [3]: < 0.15 nM

Compound: CC#CC(=O)Nc1ccc(-c2c(-c3ccc(N=S4(=O)CCCC4)cc3)c3c(N)ncnc3n2C)c(F)c1 [Compound 112, N-(4-(4-amino-7-methyl-5-(4-((1-tetrahydro-1λ^6-thiophene-1-ylidene)amino)phenyl) -7H-pyrrolo [2,3-d]pyrimidin-6-yl) -3-fluorophenyl) but-2-ynamide]
IC50 [3]: 2 nM

Compound: [2H]c1cc(-c2c(-c3ccc(NC(=O)C(=C)C)cc3F)n(C)c3ncnc(N)c23)cc([2H])c1N=S1(=O)CCCC1 [Compound 113]
IC50 [3]: 1.8 nM

Compound: [2H]c1c([2H])c(-c2c(-c3ccc(NC(=O)C(=C)C)cc3F)n(C)c3ncnc(N)c23)c([2H])c([2H])c1N=S1(=O)CCCC1 [Compound 114, N-(4-(4-amino-7-methyl-5-(4-((1-oxidetetrahydro-1 λ^6-thiophene-1-ylidene)amino)phenyl-2,3,5,6-d4) -7H-pyrrolo [2,3-d]pyrimidin-6-yl) -3-fluorophenyl) methacrylamide]
IC50 [3]: 1.2 nM

Compound: N- (4- (4-amino-5- (4- (cyclopentyl (methyl) (oxo) - λ^6-sulfanylidene) amino) phenyl) -7-methyl-7H-pyrrole [2,3-d] pyrimidin-6-yl) -3-fluorophenyl) methacrylamide [Compound 49]
IC50 [3]: 12.8 nM
